Format in all cases: cell-based
Assay [1] has as its target T1, hGIPR (Homo sapiens, UniProt P48546).
T1 sequence (P48546 22-466): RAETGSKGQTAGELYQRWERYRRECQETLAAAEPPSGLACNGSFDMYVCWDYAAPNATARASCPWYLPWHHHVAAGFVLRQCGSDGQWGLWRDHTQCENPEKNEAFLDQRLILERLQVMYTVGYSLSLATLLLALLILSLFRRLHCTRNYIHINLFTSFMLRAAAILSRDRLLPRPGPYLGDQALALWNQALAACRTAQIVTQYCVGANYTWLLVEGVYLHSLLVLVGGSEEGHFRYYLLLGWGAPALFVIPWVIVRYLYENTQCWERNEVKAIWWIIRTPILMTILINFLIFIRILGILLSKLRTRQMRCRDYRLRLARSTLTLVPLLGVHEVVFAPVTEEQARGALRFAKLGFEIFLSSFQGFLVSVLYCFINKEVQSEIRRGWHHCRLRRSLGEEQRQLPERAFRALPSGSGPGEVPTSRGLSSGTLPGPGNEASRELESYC
The assay can be described thus: Functional cAMP activity in the presence of 1% HSA. The following applies: read-out: cAMP Rel EC50, hGIPR.

The target of assay [2] is T2, hGLP-1R (Homo sapiens, UniProt P43220). Put plainly: Functional cAMP activity in the presence of 1% HSA. The following applies: read-out: cAMP Rel EC50, hGLP-1R.
T2 sequence (P43220 24-463): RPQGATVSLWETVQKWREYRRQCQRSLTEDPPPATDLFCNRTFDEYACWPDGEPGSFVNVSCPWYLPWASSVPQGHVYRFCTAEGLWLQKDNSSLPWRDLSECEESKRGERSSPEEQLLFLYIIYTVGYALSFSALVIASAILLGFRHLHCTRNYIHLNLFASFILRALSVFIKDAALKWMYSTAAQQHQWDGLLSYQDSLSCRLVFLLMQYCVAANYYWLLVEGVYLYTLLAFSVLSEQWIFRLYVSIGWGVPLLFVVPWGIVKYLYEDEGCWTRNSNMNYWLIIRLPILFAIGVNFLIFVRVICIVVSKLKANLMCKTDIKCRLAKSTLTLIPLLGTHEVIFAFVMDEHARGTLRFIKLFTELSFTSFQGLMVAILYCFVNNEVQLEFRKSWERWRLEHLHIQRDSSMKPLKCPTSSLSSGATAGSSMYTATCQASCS
Assay [3] deals with human GcgR (Homo sapiens, UniProt P47871). The assay can be described thus: Functional cAMP activity in the presence of 1% HSA. The following applies: read-out: cAMP Rel EC50, hGcgR.
Chain of human GcgR (P47871 26-477): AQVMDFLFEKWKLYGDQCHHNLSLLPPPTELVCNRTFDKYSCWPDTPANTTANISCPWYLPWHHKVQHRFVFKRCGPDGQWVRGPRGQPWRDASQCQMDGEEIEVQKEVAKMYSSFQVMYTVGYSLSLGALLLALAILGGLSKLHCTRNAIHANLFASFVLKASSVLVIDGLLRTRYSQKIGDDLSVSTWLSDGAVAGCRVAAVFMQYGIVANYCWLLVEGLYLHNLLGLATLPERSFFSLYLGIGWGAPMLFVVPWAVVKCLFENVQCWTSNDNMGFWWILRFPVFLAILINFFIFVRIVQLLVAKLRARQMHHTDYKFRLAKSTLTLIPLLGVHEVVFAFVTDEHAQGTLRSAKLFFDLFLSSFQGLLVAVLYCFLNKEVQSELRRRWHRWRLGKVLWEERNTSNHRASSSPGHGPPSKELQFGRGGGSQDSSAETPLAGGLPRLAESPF
In assay [4] the target is T1, hGIPR. The assay can be described thus: Functional cAMP activation in the presence of 0.1% casein (no HSA). The following applies: read-out: Relative cAMP EC50, hGIPR.
Assay [5] concerns the target T2, hGLP-1R. Described as above. To be noted: read-out: Relative cAMP EC50, hGLP-1R.
The target in assay [6] is hGcgR (Homo sapiens, UniProt P47871). The description is as above. The following applies: read-out: Relative cAMP EC50, hGcgR.
Chain of hGcgR (P47871 26-477): as above
The mark [7] stands for this setting: in the presence of 0.1% casein (no HSA), geometric mean.
[8] abbreviates: 0.1% casein, no HSA, geometric mean.

Where two headings read alike, the source gives them in different places. Starred links: 1 amine or outer side, 2 acyl side, 3 side chain; linkers in the order of their positions; H or OH if unused. Non-standard residues stand in square brackets, D forms with d. Residues, ends and D or L forms follow the SMILES beside them. Groups on a side chain read outwards from the residue. No end group written: not given here. *: point of attachment. C20 diacid = O=C(O)CCCCCCCCCCCCCCCCCCC(=O)*; C18 diacid = O=C(O)CCCCCCCCCCCCCCCCC(=O)*; Phe(4-CN) = N#Cc1ccc(C[C@H](N)C(=O)O)cc1; αMePhe(2-F) = C[C@](N)(Cc1ccccc1F)C(=O)O; γGlu = O=C(O)[C@H](CCC(=O)[*:2])N[*:1]; αMe4Pal = C[C@](N)(Cc1ccncc1)C(=O)O; αMeY = C[C@](N)(Cc1ccc(O)cc1)C(=O)O; 4Pal = N[C@@H](Cc1ccncc1)C(=O)O; αMeL = CC(C)C[C@](C)(N)C(=O)O; αMeS = C[C@](N)(CO)C(=O)O; Orn = NCCC[C@H](N)C(=O)O; AEEA = NCCOCCOCC(=O)O; Aib = CC(C)(N)C(=O)O
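Wherever Relative cAMP EC50, hGIPR is given: intracellular cAMP rise after 30 min at 37 °C read by HTRF against a standard curve, scaled between buffer alone (0%) and top control ligand concentration (100%), four-parameter fit.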
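Wherever Relative cAMP EC50, hGLP-1R is given: intracellular cAMP rise after 30 min at 37 °C read by HTRF, normalized between buffer only (0%) and maximal control ligand (100%), four-parameter variable-slope fit.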
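Wherever Relative cAMP EC50, hGcgR is given: intracellular cAMP rise after 30 min at 37 °C, read by HTRF against a cAMP standard curve, scaled from buffer only (0%) to maximal control ligand response (100%).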

Broadly, the EC50 is the midpoint of the concentration-response curve. Turning to “H-Y[Aib]QGTFTSDFS[Orn][αMeL]LDKK([AEEA-γGlu-C18 diacid])AQ[Aib]AFIEWLLEGGPSSGAPPPEG[4Pal]-NH2 [Example 262]”, the concentration giving a half-maximal response (EC50) is 40.4 nM in assay [1]; 400 nM in assay [2]; 720 nM in assay [3]; 0.232 nM in assay [4] (setting [7]); 4.39 nM in assay [5] (setting [7]); 9.77 nM in assay [6] (setting [7]).

With `CC[C@H](C)[C@H](NC(=O)[C@H](Cc1ccccc1)NC(=O)[C@H](C)NC(=O)C(C)(C)NC(=O)[C@H](CCC(N)=O)NC(=O)[C@H](C)NC(=O)[C@H](CCCCNC(=O)COCCOCCNC(=O)COCCOCCNC(=O)CC[C@H](NC(=O)CCCCCCCCCCCCCCCCC(=O)O)C(=O)O)NC(=O)[C@H](CCCCN)NC(=O)[C@H](CC(=O)O)NC(=O)[C@H](CC(C)C)NC(=O)[C@H](CC(C)C)NC(=O)[C@@H](NC(=O)[C@](C)(CO)NC(=O)[C@H](Cc1ccc(O)cc1)NC(=O)[C@H](CC(=O)O)NC(=O)[C@H](CO)NC(=O)[C@@H](NC(=O)[C@](C)(Cc1ccccc1F)NC(=O)[C@@H](NC(=O)CNC(=O)[C@H](CCC(N)=O)NC(=O)C(C)(C)NC(=O)[C@@H](N)Cc1ccc(O)cc1)[C@@H](C)O)[C@@H](C)O)[C@@H](C)CC)C(=O)N[C@@H](CCC(=O)O)C(=O)N[C@@H](Cc1ccc(O)cc1)C(=O)N[C@@H](CC(C)C)C(=O)N[C@@H](CCC(=O)O)C(=O)N[C@@H](CCC(=O)O)C(=O)NCC(=O)NCC(=O)N1CCC[C@H]1C(=O)N[C@@H](CO)C(=O)N[C@@H](CO)C(=O)NCC(=O)N[C@@H](C)C(=O)N1CCC[C@H]1C(=O)N1CCC[C@H]1C(=O)N1CCC[C@H]1C(=O)N[C@@H](CCC(=O)O)C(N)=O` [Example 468] (H-Y[Aib]QGT[αMePhe(2-F)]TSDY[αMeS]ILLDKK([AEEA-AEEA-γGlu-C18 diacid])AQ[Aib]AFIEYLEEGGPSSGAPPPE-NH2), the EC50 in assay [1] was 4.76 nM; in assay [2], 30.7 nM; in assay [3] it was 195 nM; in assay [4], 0.0222 nM; in assay [5], 0.466 nM; in assay [6], 1.95 nM.

As to `CC[C@H](C)[C@H](NC(=O)[C@H](Cc1ccccc1)NC(=O)[C@H](C)NC(=O)C(C)(C)NC(=O)[C@H](CCC(N)=O)NC(=O)[C@H](C)NC(=O)[C@H](CCCCNC(=O)COCCOCCNC(=O)CC[C@H](NC(=O)CCCCCCCCCCCCCCCCC(=O)O)C(=O)O)NC(=O)[C@H](CCCCN)NC(=O)[C@H](CC(=O)O)NC(=O)[C@H](CC(C)C)NC(=O)[C@](C)(CC(C)C)NC(=O)[C@@H](NC(=O)[C@H](CO)NC(=O)[C@H](Cc1ccncc1)NC(=O)[C@H](CC(=O)O)NC(=O)[C@H](CO)NC(=O)[C@@H](NC(=O)[C@](C)(Cc1ccccc1F)NC(=O)[C@@H](NC(=O)CNC(=O)[C@H](CCC(N)=O)NC(=O)C(C)(C)NC(=O)[C@@H](N)Cc1ccc(O)cc1)[C@@H](C)O)[C@@H](C)O)[C@@H](C)CC)C(=O)N[C@@H](CCC(=O)O)C(=O)N[C@@H](Cc1ccc(O)cc1)C(=O)N[C@@H](CC(C)C)C(=O)N[C@@H](CCC(=O)O)C(=O)N[C@@H](CCC(=O)O)C(=O)NCC(=O)NCC(=O)N1CCC[C@H]1C(=O)N[C@@H](CO)C(=O)N[C@@H](CO)C(=O)NCC(=O)N[C@@H](C)C(=O)N1CCC[C@H]1C(=O)N[C@@H](CCC(=O)O)C(=O)N1CCC[C@H]1C(=O)N[C@@H](CO)C(N)=O` [Example 443] (H-Y[Aib]QGT[αMePhe(2-F)]TSD[4Pal]SI[αMeL]LDKK([AEEA-γGlu-C18 diacid])AQ[Aib]AFIEYLEEGGPSSGAPEPS-NH2), the EC50 was 1.57 nM in assay [1]; 34.3 nM in assay [2]; 265 nM in assay [3]; 0.0291 nM in assay [4]; 0.572 nM in assay [5]; 6.09 nM in assay [6].

For the molecule “H-Y[Aib]QGTFTSDFS[Orn][αMeL]LDKK([AEEA-γGlu-C18 diacid])AQ[Aib]QFIEYLLAGGPSSGAPPPEGS-NH2 [Example 96]”, the EC50 in assay [1] was determined as 49.3 nM; in assay [2], 836 nM; in assay [3], 2150 nM; in assay [4] (setting [7]), 0.456 nM; in assay [5] (setting [7]), 3.92 nM; in assay [6] (setting [7]), 14.1 nM.

Consider “H-Y[Aib]QGT[αMePhe(2-F)]TSD[4Pal][αMeS]I[αMeL]LD[Orn]K([γGlu-γGlu-C18 diacid])AQ[αMe4Pal]EFI[dE][αMeY]LIEGGPPS[Aib][Orn]PPP[Orn]GE-NH2 [Example 1227]”, for which the EC50 in assay [1] worked out at 0.527 nM; in assay [2], 39.5 nM; in assay [3], 199 nM; in assay [4] (setting [8]), 0.00621 nM; in assay [5] (setting [8]), 0.387 nM; in assay [6] (setting [8]), 1.99 nM.

Turning to “H-Y[Aib]QGT[αMePhe(2-F)]TSD[4Pal][αMeS]I[αMeL]LD[Orn]K([AEEA-γGlu-C18 diacid])AQ[αMe4Pal]EFI[dE][αMeY]LVEGGPSSGEPPPSGTGE-NH2 [Example 734]”, the EC50 in assay [1] was found to be 1.3 nM; in assay [2], 38.1 nM; in assay [3], 230 nM; in assay [4] it was 0.0132 nM; in assay [5], 0.417 nM; in assay [6], 2.08 nM.

“H-Y[Aib]QGTFTSD[4Pal]SR[αMeL]LDKK([AEEA-γGlu-C18 diacid])AQ[Aib]AFIEYLIE[Aib]GPSSGAPPPSGS-NH2 [Example 802]”: the EC50 in assay [1] was 16.9 nM; in assay [2], 153 nM; in assay [3] it was 2520 nM; in assay [4] (setting [7]) it was 0.124 nM; in assay [5] (setting [7]), 1.41 nM; in assay [6] (setting [7]), 16.6 nM.

Regarding “Y[Aib]QGTFTSD[4Pal]S[Orn][αMeL]LD[Orn]K([γGlu-γGlu-C18 diacid])AQ[αMe4Pal]AFIEYLIAGGPSSGAPPPSGSE-NH2 [Example 1011]”, the EC50 in assay [1] was 13.5 nM; in assay [2], 148 nM; in assay [3] it was 459 nM; in assay [4] (setting [7]) it was 0.21 nM; in assay [5] (setting [7]), 2.13 nM; in assay [6] (setting [7]), 5.27 nM.

As to “Y[Aib]QGT[αMePhe(2-F)]TSD[4Pal][αMeS]I[αMeL]LD[Orn]K([AEEA-γGlu-C18 diacid])AQ[αMe4Pal]EFI[dE][αMeY]LIEGGPSSGEPPPESE-NH2 [Example 1147]”, the EC50 worked out at 0.831 nM in assay [1]; 45.4 nM in assay [2]; 167 nM in assay [3]; 0.00753 nM in assay [4] (setting [7]); 0.347 nM in assay [5] (setting [7]); 1.17 nM in assay [6] (setting [7]).

For the molecule “H-Y[Aib]QGTFTSD[4Pal]SK[αMeL]LDKK([AEEA-γGlu-C18 diacid])AQ[Aib]AFIEYLIE[dA]GESSGEPPPSGS-NH2 [Example 284]”, the EC50 amounted to 59.8 nM in assay [1]; 271 nM in assay [2]; 1530 nM in assay [3]; 0.347 nM in assay [4] (setting [7]); 1.54 nM in assay [5] (setting [7]); 9.21 nM in assay [6] (setting [7]).

Consider “H-Y[Aib]QGT[αMePhe(2-F)]TSD[4Pal][αMeS]I[αMeL]LD[Orn]K([γGlu-γGlu-C18 diacid])AA[Aib]EFI[dE][αMeY]LIEGGPSSGAPPPSGGGE-NH2 [Example 747]”, for which the EC50 in assay [1] was found to be 0.651 nM; in assay [2], 20.3 nM; in assay [3], 169 nM; in assay [4], 0.00955 nM; in assay [5], 0.229 nM; in assay [6] it was 1.71 nM.

For the molecule “Y[Aib]QGTFTSD[4Pal]SQ[αMeL]LDKK([AEEA-γGlu-C18 diacid])AQ[αMe4Pal]AFIEYLIE[Aib]GPSSGAPPPSGS-NH2 [Example 810]”, the EC50 was 23.6 nM in assay [1]; 256 nM in assay [2]; 540 nM in assay [3]; 0.156 nM in assay [4] (setting [7]); 2.09 nM in assay [5] (setting [7]); 3.3 nM in assay [6] (setting [7]).

As for “H-Y[Aib]QGTFTSDFS[Orn][αMeL]LDKK([AEEA-γGlu-C20 diacid])AQ[Aib]AFIEYLLAGGPSSGAPPPSGE-NH2 [Example 82]”, the EC50 was determined as 87.8 nM in assay [1]; 394 nM in assay [2]; 1070 nM in assay [3]; 0.302 nM in assay [4] (setting [7]); 3.52 nM in assay [5] (setting [7]); 6.98 nM in assay [6] (setting [7]).

With “H-Y[Aib]QGTFTSD[4Pal]SQ[αMeL]LDKK([AEEA-γGlu-C18 diacid])AQ[αMe4Pal]AFIEYLIE[Aib]GPSSGAPPPSGSEE-NH2 [Example 897]”, the EC50 in assay [1] was 25.9 nM; in assay [2] it was 557 nM; in assay [3], 658 nM; in assay [4] (setting [7]), 0.157 nM; in assay [5] (setting [7]), 3.29 nM; in assay [6] (setting [7]), 3.62 nM.

As for “H-Y[Aib]QGT[αMePhe(2-F)]TSD[Phe(4-CN)]SKLLDKIAQK([AEEA-γGlu-C20 diacid])AFIEYLIEGGPSSGEPPPSGS-NH2 [Example 364]”, the EC50 in assay [1] is 101 nM; in assay [2] it was 260 nM; in assay [3], 3190 nM; in assay [4] (setting [7]), 0.457 nM; in assay [5] (setting [7]), 1.1 nM; in assay [6] (setting [7]), 10.2 nM.

For the origin of these results see US20240270821A1, “GIP/GLP1/GCG TRI-RECEPTOR AGONISTS AND USES THEREOF” (priority 2023, published 2024).
